Data on 13 compounds can be found in patent US20090099169A1, “Benzofuran Compounds As EP1 Receptor Antagonists” (GLAXO GROUP LIMITED, priority 2006, published 2009).

Test [1] concerns the target T1, human EP1 receptor (Homo sapiens, UniProt P34995).
T1 sequence (P34995 1-402): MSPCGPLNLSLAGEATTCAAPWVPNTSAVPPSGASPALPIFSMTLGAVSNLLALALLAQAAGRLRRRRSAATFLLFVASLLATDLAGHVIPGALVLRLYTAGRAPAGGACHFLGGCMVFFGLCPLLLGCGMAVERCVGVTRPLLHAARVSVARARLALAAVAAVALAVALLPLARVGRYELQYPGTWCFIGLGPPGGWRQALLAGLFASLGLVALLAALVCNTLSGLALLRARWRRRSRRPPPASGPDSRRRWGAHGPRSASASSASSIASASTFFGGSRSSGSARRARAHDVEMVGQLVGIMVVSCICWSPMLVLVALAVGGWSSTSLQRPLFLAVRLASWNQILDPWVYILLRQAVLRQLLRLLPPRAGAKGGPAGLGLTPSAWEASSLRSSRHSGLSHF
Kind of test: human EP1 calcium mobilisation assay. In kind it is cell-based. Details: expressed in transfected cells. Conditions: CHO-K1 cells, antagonism of PGE2; averages of a number of experiments; read-out: functional pKi value (human EP1 calcium mobilisation assay) (converted). The protocol: Briefly, the antagonist properties of compounds are assessed by their ability to inhibit the mobilisation of intracellular calcium ([Ca^2+]i) in response to activation of EP1 or EP3 receptors by the natural agonist hormone prostaglandin E2 (PGE2). Increasing concentrations of antagonist reduce the amount of calcium that a given concentration of PGE2 can mobilise. The net effect is to displace the PGE2 concentration-effect curve to higher concentrations of PGE2. The amount of calcium produced is assessed using a calcium-sensitive fluorescent dye such as Fluo-4, AM and a suitable instrument such as a Fluorimetric Imaging Plate Reader (FLIPR). Increasing amounts of [Ca^2+]i produced by receptor activation increase the amount of fluorescence produced by the dye and give rise to an increasing signal. The signal may be detected using the FLIPR instrument and the data generated may be analysed with suitable curve-fitting software.
The human EP1 or EP3 calcium mobilisation assay (hereafter referred to as ‘the calcium assay’) utilises Chinese hamster ovary-K1 (CHO-K1) cells into which a stable (PCIN; BioTechniques 20 (1996): 102-110) vector containing either EP1 or EP3 cDNA has previously been transfected. Cells are cultured in suitable flasks containing culture medium such as DMEM:F-12 supplemented with 10% v/v foetal calf serum, 2 mM L-glutamine, 0.25 mg/ml geneticin, 100 μM flurbiprofen and 10 μg/ml puromycin.
For assay, cells are harvested using a proprietary reagent that dislodges cells such as Versene. Cells are re-suspended in a suitable quantity of fresh culture media for introduction into a 384-well plate. Following incubation for 24 hours at 37° C. the culture media is replaced with a medium containing Fluo-4 and the detergent pluronic acid, and a further incubation takes place. Concentrations of compounds are then added to the plate in order to construct concentration-effect curves. This may be performed on the FLIPR in order to assess the agonist properties of the compounds. Concentrations of PGE2 are then added to the plate in order to assess the antagonist properties of the compounds.
The data so generated may be analysed by means of a computerised curve-fitting routine. The concentration of compound that elicits a half-maximal inhibition of the calcium mobilisation induced by PGE2 (pIC50) may then be estimated.
(Calcium assays in cells follow changes in intracellular calcium, usually with a dye or a luminescent sensor.)

The target of test [2] is T1, human EP1 receptor. Kind of test: Binding assay for the human prostanoid EP1 receptor (radioligand competition). Details: expressed in transfected cells; host or cells: CHO-K1 (membranes). The settings on record: CHO-K1 membranes; [3H]-PGE2 for Examples 1-17, 19, 33, 34, 60 and 61, 3-{2-[5-Bromo-2-(2,4-difluorobenzyloxy)-phenyl]-5-methyl-pyrrol-1-yl}-6-[3H3-methoxy]methoxy-benzoic acid for the remaining; averages of a number of experiments; read-out: pIC50 value (binding assay for the human prostanoid EP1 receptor) (converted). The protocol:
Compound potencies are determined using a radioligand binding assay. In this assay compound potencies are determined from their ability to compete with tritiated prostaglandin E2 ([^3H]-PGE2) for binding to the human EP1 receptor.
This assay utilises Chinese hamster ovary-K1 (CHO-K1) cells into which a stable vector containing the EP1 cDNA has previously been transfected. Cells are cultured in suitable flasks containing culture medium such as DMEM:F-12 supplemented with 10% v/v foetal calf serum, 2 mM L-glutamine, 0.25 mg/ml geneticin, 10 μg/ml puromycin and 10 μM indomethacin.
Cells are detached from the culture flasks by incubation in calcium and magnesium free phosphate buffered saline containing 1 mM disodium ethylenediaminetetraacetic acid (Na2EDTA) and […] indomethacin for 5 min. The cells are isolated by centrifugation at 250×g for 5mins and suspended in an ice cold buffer such as 50 mM Tris, 1 mM Na2EDTA, 140 mM NaCl, 10 μM indomethacin (pH 7.4). The cells are homogenised using a Polytron tissue disrupter (2×10 s burst at full setting), centrifuged at 48,000×g for 20mins and the pellet containing the membrane fraction is washed (optional) three times by suspension and centrifugation at 48,000×g for 20mins. The final membrane pellet is suspended in an assay buffer such as 10 mM 2-[N-morpholino]ethanesulphonic acid, 1 mM Na2EDTA, 10 mM MgCl2 (pH 6). Aliquots are frozen at −80° C. until required.
For the binding assay the cell membranes, competing compounds and [^3H]-PGE2 (3 nM final assay concentration) are incubated in a final volume of 100 μl for 30 min at 30° C. All reagents are prepared in assay buffer. Reactions are terminated by rapid vacuum filtration over GF/B filters using a Brandell cell harvester. The filters are washed with ice cold assay buffer, dried and the radioactivity retained on the filters is measured by liquid scintillation counting in Packard TopCount scintillation counter.
The data are analysed using non linear curve fitting techniques to determine the concentration of compound producing 50% inhibition of specific binding (IC50).
Alternatively a similar assay may be carried out using 3-{2-[5-Bromo-2-(2,4-difluoro-benzyloxy)-phenyl]-5-methyl-pyrrol-1-yl}-6-[^3H3-methoxy]methoxy-benzoic acid instead of [^3H]-PGE2.
For the binding assay using 3-{2-[5-Bromo-2-(2,4-difluoro-benzyloxy)-phenyl]-5-methyl-pyrrol-1-yl}-6-[^3H3-methoxy]methoxy-benzoic acid instead of [^3H]-PGE2 the assay is carried out using a similar procedure to that described above using [^3H]-PGE2 with the following changes:
The cell membranes, competing compounds and 3-{2-[5-Bromo-2-(2,4-difluoro-benzyloxy)-phenyl]-5-methyl-pyrrol-1-yl}-6-[^3H3-methoxy]methoxy-benzoic acid (0.2 nM final assay concentration) are incubated in a final volume of 400 μl for 45 min at 37° C. All reagents are prepared in assay buffer. Reactions are terminated by rapid vacuum filtration over GF/B filters using a Brandell cell harvester. The filters are washed with water at ambient temperature, dried and the radioactivity retained on the filters is measured by liquid scintillation counting in Packard TopCount scintillation counter.
The preparation of 3-{2-[5-Bromo-2-(2,4-difluoro-benzyloxy)-phenyl]-5-methyl-pyrrol-1-yl}-6-methoxy-benzoic acid is described in WO 03/101959 and in Hall et al, Biorg. Med. Chem. Lett., 2007, 17, 916-920. The tritiated version may be prepared via conventional routes, e.g. from 3-{2-[5-bromo-2-(2,4-difluoro-benzyloxy)-phenyl]-5-methyl-pyrrol-1-yl}-6-hydroxy-benzoic acid or 3-{2-[5-bromo-2-(2,4-difluoro-benzyloxy)-phenyl]-5-methyl-pyrrol-1-yl}-6-hydroxy-benzoic acid methyl ester.
On the technique in general: In a radioligand displacement assay an active substance lowers the binding of a labelled ligand.

Structures can show the parent of a compound that is named as a salt.

Take `Cc1cc(-c2nc3ccccc3[nH]2)nn1Cc1cc(Cl)cc2cc(C(C)C)oc12` [Example 5, 2-(1-{[5-Chloro-2-(1-methylethyl)-1-benzofuran-7-yl]methyl}-5-methyl-1H-pyrazol-3-yl)-1H-benzimidazole Hydrochloride]: the Ki at human EP1 receptor [1] is not above 316 nM. Further, the IC50 on human EP1 receptor [2] was not above 100 nM. The matching figures for `Cc1cc(C(=O)NN2CCCCC2)nn1Cc1cc(Cl)cc2cc(C(C)C)oc12` [Example 6, 1-{[5-Chloro-2-(1-methylethyl)-1-benzofuran-7-yl]methyl}-5-methyl-N-1-piperidinyl-1H-pyrazole-3-carboxamide]: not above 316 nM and not above 100 nM.

On to `Cc1cc(C(=O)NN2CCOCC2)nn1Cc1cc(Cl)cc2cc(C(C)C)oc12` [Example 7, 1-{[5-Chloro-2-(1-methylethyl)-1-benzofuran-7-yl]methyl}-5-methyl-N-4-morpholinyl-1H-pyrazole-3-carboxamide], for which the Ki at human EP1 receptor [1] is not above 316 nM. The IC50 at human EP1 receptor [2] is not above 100 nM.

With `CC(C)c1cc2cc(Cl)cc(Cc3ccc(-c4nc5cc(CO)ccc5[nH]4)o3)c2o1` [Example 9, [2-(5-{[5-Chloro-2-(1-methylethyl)-1-benzofuran-7-yl]methyl}-2-furanyl)-1H-benzimidazol-5-yl]methanol Hydrochloride], at human EP1 receptor [1], the Ki was not above 316 nM. Also, on human EP1 receptor [2], the IC50 is not above 100 nM. For the compound `Cc1cc(C(=O)NN2CCOCC2)nn1Cc1cc(Br)cc2cc(C(C)C)oc12` [Example 18, 1-{[5-Bromo-2-(1-methylethyl)-1-benzofuran-7-yl]methyl}-5-methyl-N-4-morpholinyl-1H-pyrazole-3-carboxamide], the Ki at human EP1 receptor [1] is not above 316 nM. On human EP1 receptor [2], the IC50 is not above 100 nM. For the compound `Cc1cc(C(=O)O)nn1Cc1cc(Br)cc2cc(C(C)C)oc12` [Example 19, 1-{[5-Bromo-2-(1-methylethyl)-1-benzofuran-7-yl]methyl}-5-methyl-1H-pyrazole-3-carboxylic Acid], the Ki at human EP1 receptor [1] was not above 316 nM. On human EP1 receptor [2], the IC50 was not above 100 nM. Regarding `Cc1cc(C(=O)O)nn1Cc1cc(Cl)cc2cc(C3CC3)oc12` [Example 23, Sodium 1-[(5-chloro-2-cyclopropyl-1-benzofuran-7-yl)methyl]-5-methyl-1H-pyrazole-3-carboxylate], the IC50 at human EP1 receptor [2] was not above 100 nM. For `CC(C)c1cc2cc(Cl)cc(Cc3cccc(C(=O)O)n3)c2o1` [Example 24], on human EP1 receptor [1], the Ki was not above 316 nM. In addition, on human EP1 receptor [2], the IC50 was not above 100 nM.

For `Cc1cc(C(=O)O)nn1Cc1cc(C#N)cc2cc(C(C)C)oc12` [Example 25, 1-{[5-Cyano-2-(1-methylethyl)-1-benzofuran-7-yl]methyl}-5-methyl-1H-pyrazole-3-carboxylic Acid], the Ki at human EP1 receptor [1] was not above 316 nM. Also, on human EP1 receptor [2], the IC50 is not above 100 nM. As to `Cc1cc(C(=O)Nc2ccc(CN3CCC(O)CC3)cc2)nn1Cc1cc(Br)cc2cc(C(C)C)oc12` [Example 49, 1-{[5-Bromo-2-(1-methylethyl)-1-benzofuran-7-yl]methyl}-N-{4-[(4-hydroxy-1-piperidinyl)methyl]phenyl}-5-methyl-1H-pyrazole-3-carboxamide Hydrochloride], the IC50 at human EP1 receptor [2] was not above 100 nM. As for `Cc1cc(NC(=O)[C@H]2CC[C@@H](O)CC2)nn1Cc1cc(Cl)cc2cc(C(C)C)oc12` [Example 62, cis-N-(1-{[5-Chloro-2-(1-methylethyl)-1-benzofuran-7-yl]methyl}-5-methyl-1H-pyrazol-3-yl)-4-hydroxycyclohexanecarboxamide], the IC50 on human EP1 receptor [2] is not above 100 nM. Turning to `Cc1cc(NC(=O)[C@H]2CC[C@H](O)CC2)nn1Cc1cc(Cl)cc2cc(C(C)C)oc12` [Example 63, trans-N-(1-{[5-chloro-2-(1-methylethyl)-1-benzofuran-7-yl]methyl}-5-methyl-1H-pyrazol-3-yl)-4-hydroxycyclohexanecarboxamide], the IC50 on human EP1 receptor [2] was not above 100 nM. As to `Cc1cc(NC(=O)c2ccc(CN3CCCC3)cc2)nn1Cc1cc(Cl)cc2cc(C(C)C)oc12` [Example 67], the IC50 at human EP1 receptor [2] is not above 100 nM.
